Measured values: patent EP0236542B1, “Novel organic phosphinic acid compounds” (CYANAMID CANADA INC., priority 1980, dated 1982)
Read-outs that look alike come from different tables or passages of the source.

Experiment: pKa determination in 75% isopropanol
Assay type: physicochemical
Details: product as isolated (assay about 85-88% phosphinic acid)

pKa (read-out: pKa)	pKa	Structure (SMILES)
6.04	–	CC(CC(C)(C)C)CP(=O)(O)C1CCCCC1 (centres unmarked) [2,4,4 -trimethylpentyl, cyclohexylphosphinic acid]
–	6.03 ± 0.05	CC(CC(C)(C)C)CP(=O)(O)CC(C)CC(C)(C)C (centres unmarked) [di-2,4,4 -trimethylpentylphosphinic acid]
